We go through 46 molecules from patent publication US6861448B2, “NAD synthetase inhibitors and uses thereof” (priority 1998, dated 2005).

This assay addresses NAD synthetase (Bacillus subtilis, UniProt P08164). The experiment in a line: NAD synthetase coupled enzyme assay. It counts as biochemical. An excerpt:
This Example illustrates the NAD synthetase enzyme inhibiting activity of some compounds of the present invention. [drawing 48] The coupled assay—production of NAD was monitored through conversion to NADH by alcohol dehydrogenase. [NADH] was monitored by 2 parallel methods: the change in absorbance at 340 nm, and fluorescence at 460 nm (excitation 320 nm). […] Controls were included for determining inhibitor background, precipitation, and ADH inhibition.

[1] abbreviates: NAD synthetase 2.0 μg/mL, 0.1 mM NaAD, 0.2 mM ATP, pH 8.5.

Read-outs that look alike come from different tables or passages of the source.

Sequence of NAD synthetase (P08164 whole entry): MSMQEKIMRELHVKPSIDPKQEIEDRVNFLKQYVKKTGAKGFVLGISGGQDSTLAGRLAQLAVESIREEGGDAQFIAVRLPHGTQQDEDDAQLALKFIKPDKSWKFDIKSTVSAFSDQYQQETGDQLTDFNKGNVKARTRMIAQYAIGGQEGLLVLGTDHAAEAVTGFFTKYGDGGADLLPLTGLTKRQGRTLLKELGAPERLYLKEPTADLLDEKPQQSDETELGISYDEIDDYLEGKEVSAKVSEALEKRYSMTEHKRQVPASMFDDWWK

For the molecule `C[N+](C)(C)c1ccc(CC(=O)OCCCCCCCCCCCOc2ccc(OCc3ccccc3)cc2)cc1` [Compound 1323], half-maximal inhibition under setting [1] (IC50) required 48.2 µM.

On to `C[N+](C)(C)c1ccc(CC(=O)NCCCCCCCCOc2ccc(OC(=O)c3c(Cl)cccc3Cl)cc2)cc1` [Compound 1635], for which it took 35.1 µM to reach half-maximal inhibition under setting [1] (IC50).

As to `CC(C)Oc1ccc(C(=O)Oc2ccc(OCCCCCCCCNC(=O)C(Cc3ccccc3)[N+](C)(C)C)cc2)cc1` (stereo not shown) [Compound 1600], the IC50 under setting [1] was 28.7 µM. This IC50 and that of the molecule before are within 1.5-fold of each other.

Under setting [1], `C[n+]1cccc(C(=O)NCCCCCCCCOc2ccc(OC(=O)c3c(Cl)cccc3Cl)cc2)c1` [Compound 1664] returned a 50% inhibitory concentration (IC50) of 19.9 µM.

Under setting [1], `C[N+](C)(C)[C@@H](Cc1c[nH]c2ccccc12)C(=O)OCCCCCCCCOc1ccc(OCc2ccccc2)cc1` [Compound 1491] showed an IC50 of 19.9 µM.

Under setting [1], `C[N+](C)(C)c1ccc(CC(=O)NCCCCCCCCOc2ccc(OC(=O)c3cc(Cl)ccc3Cl)cc2)cc1` [Compound 1634] showed an IC50 of 21.2 µM. The IC50 values of the last two molecules are within 1.5-fold of each other.

Molecule `C[n+]1cccc(C(=O)NCCCCCCCCOc2ccc(OC(=O)c3cccc(Cl)c3Cl)cc2)c1` [Compound 1661] came in with an IC50 under setting [1] of 23.7 µM.

Under setting [1], `N=C(N)N[C@@H](Cc1ccccc1)C(=O)NCCCCCCCCOc1ccc(OCc2ccccc2)cc1` [Compound 1681] returned an IC50 of 12.9 µM.

Under setting [1], `CC(C)(C)OC(=O)C(Cc1cn(CCCCCCCCOc2ccc(OCc3ccccc3)cc2)c2ccccc12)[N+](C)(C)C` (stereo not shown) [Compound 1494] had an IC50 of 12.5 µM.

Consider `C[N+](C)(C)c1ccc(CC(=O)NCCCCCCCCOc2ccc(OCc3cccc(Cl)c3)cc2)cc1` [Compound 1421], for which the IC50 under setting [1] came to 34.8 µM.

For the molecule `CC(C)Oc1ccc(C(=O)Oc2ccc(OCCCCCCCCOC(=O)C(Cc3ccccc3)[N+](C)(C)C)cc2)cc1` (stereo not shown) [Compound 1477], the IC50 under setting [1] was found to be 14 µM.

Take `N=C(N)N[C@H](COCCCCCCCCOc1ccc(OCc2ccccc2)cc1)Cc1ccccc1` [Compound 1680]: 10.1 µM corresponded to half-maximal inhibition under setting [1] (IC50).

In turn, `C[N+](C)(C)C(Cc1ccccc1)C(=O)NCCCCCCCCOc1ccc(OC(=O)c2cccc(F)c2)cc1` (stereo not shown) [Compound 1597] displayed an IC50 under setting [1] of 21.3 µM.

In the case of `C[n+]1cccc(C(=O)NCCCCCCCCOc2ccc(OCc3cccc(Cl)c3)cc2)c1` [Compound 1422], the IC50 under setting [1] is 27.9 µM.

As to `C[N+](C)(C)C(Cc1ccccc1)C(=O)NCCCCCCCCOc1ccc(OC(=O)c2cccc(F)c2F)cc1` (stereo not shown) [Compound 1609], the IC50 under setting [1] was 20.7 µM.

`C[N+](C)(C)C(Cc1ccccc1)C(=O)NCCCCCCCCOc1ccc(OC(=O)c2cc(Cl)cc(Cl)c2)cc1` (stereo not shown) [Compound 1608] returned an IC50 under setting [1] of 26.3 µM.

Under setting [1], `COc1ccccc1COc1ccc(OCCCCCCCCOC(=O)Cc2ccc([N+](C)(C)C)cc2)cc1` [Compound 1393] came in with a concentration for half-maximal inhibition (IC50) of 36.7 µM.

`COc1cccc(COc2ccc(OCCCCCCCCOC(=O)C(Cc3ccccc3)[N+](C)(C)C)cc2)c1` (stereo not shown) [Compound 1388]: the IC50 under setting [1] was 14.5 µM.

Turning to `C[N+](C)(C)c1ccc(CC(=O)NCCCCCCCCOc2ccc(OC(=O)c3cc(F)c(F)c(F)c3)cc2)cc1` [Compound 1650], the IC50 under setting [1] is > 50 µM.

`C[N+](C)(C)c1ccc(CC(=O)OCCCCCCCCOc2cccc(OCc3ccccc3)c2)cc1` [Compound 1169] yielded an IC50 under setting [1] of 36.2 µM. This counts as double-digit micromolar.

`C[N+](C)(C)c1ccc(CC(=O)NCCCCCCCCOc2ccc(OC(=O)c3cc(Cl)cc(Cl)c3)cc2)cc1` [Compound 1637] returned an IC50 under setting [1] of 23.3 µM.

`N=C(N)N[C@H](COCCCCCCCCOc1ccc(OCc2ccccc2)cc1)Cc1ccccc1` [Compound 1679] gave an IC50 of 10.4 µM.

Regarding `COc1ccccc1COc1ccc(OCCCCCCCCOC(=O)C(Cc2ccccc2)[N+](C)(C)C)cc1` (stereo not shown) [Compound 1387], under setting [1], half-maximal inhibition (IC50) was put at 20.5 µM.

Molecule `C[N+](C)(C)c1ccc(CC(=O)NCCCCCCCCOc2ccc(OC(=O)c3cccc(Cl)c3Cl)cc2)cc1` [Compound 1632] displayed an IC50 under setting [1] of 18.5 µM.

`C[N+](C)(C)c1ccc(CC(=O)OCCCCCCCOC(=O)c2ccc(OCc3ccccc3)cc2)cc1` [Compound 1359] had an IC50 under setting [1] of 42.2 µM.

As for `COC(=O)c1ccc(OCCCCCCCCOC(=O)Cc2ccc([N+](C)(C)C)cc2)cc1OCc1ccccc1` [Compound 1186], the IC50 under setting [1] is 46.1 µM.

Turning to `C[N+](C)(C)C(Cc1ccccc1)C(=O)OCCCCCCCCOc1ccc(OC(=O)c2ccc(-n3ccnc3)cc2)cc1` (stereo not shown) [Compound 1486], it took 37.8 µM to reach half-maximal inhibition under setting [1] (IC50). This IC50 and that of the molecule before are within 1.5-fold of each other.

As for `C[n+]1cccc(C(=O)NCCCCCCCCOc2ccc3c(c2)C(=O)CC(c2ccccc2)O3)c1` (stereo not shown) [Compound 1448], the half-inhibitory concentration (IC50) under setting [1] is 30.7 µM.

The molecule `C[N+](C)(C)C(Cc1ccccc1)C(=O)OCCCCCCCCOc1ccc(OCc2ccccc2)cc1` (stereo not shown) [Compound 1338] displayed an IC50 under setting [1] of 23 µM.

`N=C(N)N[C@@H](Cc1ccccc1)C(=O)NCCCCCCCCOc1ccc(OCc2ccccc2)cc1` [Compound 1682] gave an IC50 under setting [1] of 17.6 µM.

Molecule `CC(=O)Oc1ccc(C(=O)Oc2ccc(OCCCCCCCCNC(=O)C(Cc3ccccc3)[N+](C)(C)C)cc2)cc1` (stereo not shown) [Compound 1599] came in with an IC50 under setting [1] of 44 µM.

Molecule `C[N+](C)(C)C(Cc1ccccc1)C(=O)OCCCCCCCCOc1ccc(OC(=O)c2ccccc2)cc1` (stereo not shown) [Compound 1431] returned an IC50 under setting [1] of 18.2 µM.

Regarding `C[N+](C)(C)C(Cc1ccccc1)C(=O)NCCCCCCCCOc1ccc(OC(=O)c2ccccc2F)cc1` (stereo not shown) [Compound 1596], the midpoint of inhibition under setting [1], the IC50, lay at 28 µM. This IC50 is about 1.5-fold higher than that of the molecule before.

In the case of `CC[N+]1([C@@H](Cc2ccccc2)C(=O)NCCCCCCCCOc2ccc(OCc3ccccc3)cc2)CCCC1` [Compound 1501], the midpoint of inhibition under setting [1], the IC50, lay at 38.2 µM.

Consider `C[n+]1cccc(C(=O)NCCCCCCCCOc2ccc(OC(=O)c3cc(F)c(F)c(F)c3)cc2)c1` [Compound 1678], for which, under setting [1], half-maximal inhibition (IC50) required 36.5 µM. The IC50 values of the last two molecules are within 1.5-fold of each other.

Molecule `C[N+](C)(C)c1ccc(CC(=O)OCCCCCCCCn2ccc3cccc(OCc4ccccc4)c32)cc1` [Compound 1127] displayed an IC50 under setting [1] of 23 µM.

As to `CSc1ccc(C(=O)Oc2ccc(OCCCCCCCCOC(=O)C(Cc3ccccc3)[N+](C)(C)C)cc2)cc1` (stereo not shown) [Compound 1478], inhibition under setting [1] was half-maximal at 15.8 µM (IC50).

Under setting [1], `C[N+](C)(C)c1ccc(CC(=O)OCCCCCCCCCOc2ccc(OCc3ccccc3)cc2)cc1` [Compound 1321] gave an IC50 of 22 µM.

Regarding `C[N+](C)(C)C(Cc1ccccc1)C(=O)NCCCCCCCCOc1ccc(OC(=O)c2c(Cl)cc(Cl)cc2Cl)cc1` (stereo not shown) [Compound 1616], the 50% inhibitory concentration (IC50) under setting [1] turned out to be 38.5 µM.

Molecule `C[N+](C)(C1CCOCC1)[C@@H](Cc1ccccc1)C(=O)OCCCCCCCCOc1ccc(OCc2ccccc2)cc1` [Compound 1358] gave an IC50 under setting [1] of 46.6 µM.

Regarding `C[N+](C)(C)C(Cc1ccccc1)C(=O)OCCCCCCCCOc1ccc2c(c1)C(=O)CC(c1ccccc1)O2` (mixture of isomers) [Compound 1370], under setting [1], 16.9 µM corresponded to half-maximal inhibition (IC50).

Turning to `CC[N+]1([C@@H](Cc2ccccc2)C(=O)OCCCCCCCCOc2ccc(OCc3ccccc3)cc2)CCCC1` [Compound 1442], half-maximal inhibition under setting [1] (IC50) required 21.4 µM.

Under setting [1], `C[N+](C)(C)C(Cc1ccccc1)C(=O)NCCCCCCCCOc1ccc(OC(=O)c2cccc(Cl)c2Cl)cc1` (stereo not shown) [Compound 1603] gave an IC50 of 34.9 µM. This IC50 is about 1.6-fold higher than that of the molecule before.

Turning to `C[N+](C)(C)C(Cc1ccccc1)C(=O)NCCCCCCCCOc1ccc(OC(=O)c2ccc(F)c(F)c2)cc1` (stereo not shown) [Compound 1613], under setting [1], the IC50 is 19.1 µM. Compared with the last molecule, the IC50 is about 1.8-fold lower.

Consider `C[N+](C)(C)c1ccc(CC(=O)NCCCCCCCCOc2ccc(OC(=O)c3ccc(Cl)cc3)cc2)cc1` [Compound 1624], for which the IC50 under setting [1] came to 31.2 µM.

For `C[N+](C)(C)c1ccc(CC(=O)NCCCCCCCCOc2ccc(OC(=O)c3ccc(Cl)cc3Cl)cc2)cc1` [Compound 1633], under setting [1], the IC50 was determined as 20.4 µM. This IC50 is about 1.5-fold lower than that of the molecule before.
